Data reported in PMC12627007, “HIV nucleocapsid proteins as targets for novel 1,2-benzisothiazol-3(2H)-one benzenesulfonamides: synthesis and antiretroviral activity” (Frontiers in Microbiology, 2025).
Where two headings read alike, the source gives them in different places.

Key:
[1] = Cytotoxicity in mock-infected MT-4 cells (MTT method); type: cell-based; conditions: human
Experimental: The activity of the test compounds against the replication of HIV-1 wt and mutant strains (N119, A17, EFV^R, AZT^R, MDR, SAQ^R) and HIV-2 wt in acutely infected cells was based on the inhibition of virus-induced cytopathogenicity in MT-4 and C8166 cells, respectively. Briefly, 50 μL of culture medium containing 1 × 10^4 cells was added to each well of flat-bottom microtitre trays containing 50 μL of culture medium with or without different serial concentrations of test compounds. Then, 20 μL of an HIV suspension (containing the appropriate amount of CCID50 required to cause complete cytopathogenicity on day 4, final multiplicity of infection [m.o.i.] 0.01) was added. After incubation at 37 °C, cell viability was determined using the […] (MTT) method ([Pauwels et al., 1988]). The cytotoxicity of the test compounds was evaluated in parallel with their antiviral activity through the viability of mock-infected, treated cells, as monitored by the MTT method and described elsewhere ([Morellet et al., 1994]).

[2] = microbe, parasite or virus in culture; type: cell-based, HIV-1; conditions: all tested strains (HIV-1 wt, mutants, HIV-2)
Experimental: (§1) HIV-1IIIB and HIV-2 CBL-20 strains were obtained from the supernatants of persistently infected H9/IIIB and CEM cells, respectively. HIV-1 and HIV-2 stock solutions had titres of 4.5 × 10^7 and 1.4 × 10^6 50% cell culture infectious doses (CCID50)/ml, respectively. […] The K103R + V179D + P225H mutant (EFVR) was derived from an IIIB strain passaged in MT-4 cells in the presence of Efavirenz (up to 2 μM). N119, A17 and EFV^R stock solutions had titres of 1.2 × 10^8, 2.1 × 10^7, and 4.0 × 10^7 CCID50/ml, respectively.
(§2) The activity of the test compounds against the replication of HIV-1 wt and mutant strains (N119, A17, EFV^R, AZT^R, MDR, SAQ^R) and HIV-2 wt in acutely infected cells was based on the inhibition of virus-induced cytopathogenicity in MT-4 and C8166 cells, respectively. Briefly, 50 μL of culture medium containing 1 × 10^4 cells was added to each well of flat-bottom microtitre trays containing 50 μL of culture medium with or without different serial concentrations of test compounds. Then, 20 μL of an HIV suspension (containing the appropriate amount of CCID50 required to cause complete cytopathogenicity on day 4, final multiplicity of infection [m.o.i.] 0.01) was added.

HIV-1 IIIB strain = assay: microbe, parasite or virus in culture; type: cell-based; conditions: for EC50: Human immunodeficiency virus 1, IIIB; for Selectivity Index (SI = CC50/EC50) HIV-1: IIIB strain, in round brackets
Experimental: as §1, §2

HIV-1 N119 (Y181C) = assay: Inhibition of virus-induced cytopathogenicity in MT-4 cells, NNRTI-resistant mutant N119; type: cell-based; conditions: for EC50: Human immunodeficiency virus 1, MT4, read-out: EC50 N119; for Selectivity Index (SI = CC50/EC50) N119: in round brackets
Experimental: as §1, §2

[3] = test system: HIV-1 A17 (K103N + Y181C); assay: Inhibition of virus-induced cytopathogenicity in MT-4 cells, NNRTI-resistant mutant A17; type: cell-based; conditions: for EC50: Human immunodeficiency virus 1, MT4, read-out: EC50 A17; for Selectivity Index (SI = CC50/EC50) A17: in round brackets
Experimental: as §1, §2

[4] = test system: HIV-1 EFVR (K103R + V179D + P225H); assay: Inhibition of virus-induced cytopathogenicity in MT-4 cells, NNRTI-resistant mutant EFVR; type: cell-based; conditions: for EC50: Human immunodeficiency virus 1, MT4, read-out: EC50 EFVR; for Selectivity Index (SI = CC50/EC50) EFVR: in round brackets
Experimental: as §1, §2

[5] = test system: HIV-1 AZTR (67N, 70R, 215F, 219Q); assay: Inhibition of virus-induced cytopathogenicity in MT-4 cells, NRTI-resistant mutant AZTR; type: cell-based; conditions: for EC50: Human immunodeficiency virus 1, MT4, read-out: EC50 AZTR; for Selectivity Index (SI = CC50/EC50) AZTR: in round brackets
Experimental: as §1, §2

[6] = test system: HIV-1 MDR (74V, 41L, 106A, 215Y); assay: Inhibition of virus-induced cytopathogenicity in MT-4 cells, NRTI-resistant mutant MDR; type: cell-based; conditions: for EC50: Human immunodeficiency virus 1, MT4, read-out: EC50 MDR; for Selectivity Index (SI = CC50/EC50) MDR: in round brackets
Experimental: as §1, §2

[7] = test system: HIV-1 SAQR (L10F, G48V, L90M); assay: Inhibition of virus-induced cytopathogenicity in MT-4 cells, PRI-resistant mutant SAQR; type: cell-based; conditions: for EC50: Human immunodeficiency virus 1, MT4, read-out: EC50 SAQR; for Selectivity Index (SI = CC50/EC50) SAQR: in round brackets
Experimental: as §1, §2

HIV-2 CBL-20 strain = assay: Inhibition of HIV-2-induced cytopathogenicity in C8166 cells (MTT); type: cell-based; conditions: for Selectivity Index (SI = CC50/EC50) HIV-2: in round brackets
Experimental: as §1, §2

[8] = biological target: T1, HIV-1 reverse transcriptase (Human immunodeficiency virus type 1 group M subtype B, UniProt P04585); assay: Reverse transcriptase enzyme assay; type: biochemical; conditions: for Inhibition of recombinant HIV-1 RT: at concentrations of 30 μM
T1 construct: recombinant HIV-1 reverse transcriptase

[9] = biological target: T2, HIV-1 recombinant integrase (rIN) (Human immunodeficiency virus type 1 group M subtype B, UniProt P04585); assay: Integrase (rIN) enzyme assays: 3'-processing and strand transfer; type: biochemical; conditions: for Inhibition of recombinant HIV-1 IN: at concentrations of 30 μM
T2 construct: HIV-1 recombinant integrase (rIN); made in house
From the text: ^aCompound concentration (µM) required to reduce the amount of 3’-end-labeled duplex of 21/19mers substrates, in 3’-processing and strand-transfer reactions catalyzed by the recombinant HIV-1 integrase, by 50%. Data represent mean values for three independent determinations.

HIV-1 wt = assay: Time of addition assay in MT-4 cells; type: cell-based; conditions: compound 6 15 μM, EFV 0.05 μM; MT-4, m.o.i. 5
Experimental: 2 × 10^4 MT-4 cells were infected for 1 h at 20 °C with HIV-1 at a high multiplicity of infection (m.o.i. = 5), corresponding to 5 cell culture infectious dose 50 per cell (CCID50/cell).
Titration was performed in C8166 cells using the standard limiting dilution method (dilution 1:2, four replica wells/dilution) in 96-well plates.
Virus yields were determined using the Reed–Muench method. Bars are mean values, and whiskers are standard deviations (SD) of three independent experiments.

[10] = test system: chronically HIV-1-infected H9 cells / uninfected C8166 cells; assay: Syncytium formation in chronically infected H9/C8166 cocultures (entry assay); type: cell-based; conditions: 0.5 μM, 36 h
Experimental: Chronically infected H9 cells were washed and cocultured with uninfected C8166 cells (ratio 1:500) in the absence or presence of test inhibitors. Following 36 h of incubation at 37 °C, cocultures were monitored by optical microscopy, syncytia were counted, and those found in drug-treated cocultures were reported as a percentage of those counted in untreated cocultures ([Wang et al., 2004]).
In this assay, syncytia were formed as a result of the interaction of env-encoded glycoproteins (present on the outer membrane of chronically infected H9 cells) with the CD4 of cocultured C8166 cells.
Figure 3 Comparative activity of compound 6 (30 μM) and dextran sulphate (0.5 μM) in preventing syncytium formation in chronically infected H9/C8166 cocultures. The H9/C8166 ratio was […]. The cells were incubated for 36 h at 37 °C. Data represent mean values of at least three independent determinations of syncytial numbers using an optical microscope. Bars are mean values, and whiskers are standard deviations (SD) of at least three independent experiments.

[11] = Human immunodeficiency virus 2, C8166, read-out: EC50 HIV-2
[12] = read-out: IC50 Strand-transfer, recombinant HIV-1 integrase

| Compound | CC50 at 4 days [1] [µM] | Selectivity Index (SI) against all tested strains [2] | EC50 (HIV-1 IIIB strain; MT4, read-out: EC50 HIV-1) [µM] | Selectivity Index (SI = CC50/EC50) HIV-1 (HIV-1 IIIB strain) | EC50 (HIV-1 N119 (Y181C)) [µM] | Selectivity Index (SI = CC50/EC50) N119 (HIV-1 N119 (Y181C)) | EC50 [3] [µM] | Selectivity Index (SI = CC50/EC50) A17 [3] | EC50 [4] [µM] | Selectivity Index (SI = CC50/EC50) EFVR [4] | EC50 [5] [µM] | Selectivity Index (SI = CC50/EC50) AZTR [5] | EC50 [6] [µM] | Selectivity Index (SI = CC50/EC50) MDR [6] | EC50 [7] [µM] | Selectivity Index (SI = CC50/EC50) SAQR [7] | EC50 (HIV-2 CBL-20 strain; [11]) [µM] | Selectivity Index (SI = CC50/EC50) HIV-2 (HIV-2 CBL-20 strain) | IC50 [8] [µM] | Inhibition of recombinant HIV-1 RT [8] | other results |
| --- | --- | --- | --- | --- | --- | --- | --- | --- | --- | --- | --- | --- | --- | --- | --- | --- | --- | --- | --- | --- | --- |
| Cc1ccc(S(=O)(=O)Nn2sc3ccccc3c2=O)cc1 [Compound 7, 4-Methyl-N-(3-oxo-1,2-benzisothiazol-2(3H)-yl)benzenesulfonamide] | 35 ± 1 | around 10 | 10 ± 3 | 3.5 | 5 ± 0.1 | 7 | 8 ± 1 | 4 | 8 ± 3 | 4 | 8 ± 1 | 4 | 6 ± 0.7 | 5 | 9 ± 2 | 3 | 4 ± 0.7 | 8 | > 30 | none of the benzenesulfonamides were active | IC50 [9]: > 30 µM; Inhibition of recombinant HIV-1 IN [9]: none of the benzenesulfonamides were active; IC50 [9, 12]: > 30 µM |
| Cc1ccc2sn(NS(=O)(=O)c3ccccc3Cl)c(=O)c2c1 [Compound 17, 2-Chloro-N-(5-methyl-3-oxo-1,2-benzisothiazol-2(3H)-yl)benzenesulfonamide] | 73 ± 0.1 | around 10 | 2 ± 1 | 36 | 5 ± 0.7 | 14 | 9 ± 3 | 8 | 5 ± 2 | 14 | 4 ± 0.7 | 18 | 3 ± 0.5 | 23 | 6 ± 1 | 12 | 4 ± 0.5 | 18 |  |  |  |
| O=c1c2ccc(Cl)cc2sn1NS(=O)(=O)c1ccccc1Cl [Compound 19, 2-Chloro-N-(6-chloro-3-oxo-1,2-benzisothiazol-2(3H)-yl)benzenesulfonamide] | 60 ± 4 | around 10 | 11 ± 3 | 5 | 14 ± 3 | 4 | ≥ 33 |  | 7 ± 2 | 8 | 14 ± 1 | 5 | 11 ± 2 | 5 | 21 ± 1 | 2 | 12 ± 2 | 5 | > 30 | none of the benzenesulfonamides were active | IC50 [9]: > 30 µM; Inhibition of recombinant HIV-1 IN [9]: none of the benzenesulfonamides were active; IC50 [9, 12]: > 30 µM |
| O=C1Nc2ccc(Cl)cc2[C@@](C#CC2CC2)(C(F)(F)F)O1 [EFV, efavirenz, reference compound] |  |  | 0.002 ± 0.0003 |  | 0.008 ± 0.003 |  | 0.3 ± 0.009 |  | 3 ± 1 |  | 0.002 ± 0.0003 |  | 0.004 |  | 0.007 ± 0.005 |  | > 20 |  |  |  | CC50 at 4 days ([1]; MT-4, MTT method): 30 ± 5 µM; EC50 (HIV-1 IIIB strain; MT4, read-out: EC50 HIV-1 (Table 2)): 0.002 ± 0.0003 µM; EC50 (HIV-2 CBL-20 strain; Human immunodeficiency virus 2, C8166, read-out: EC50 HIV-2 (Table 2)): > 20 µM; Infectious virus yield when compound present only during the 1-h infection period (HIV-1 wt): infectious virus yield similar to that of the untreated infected controls; Time of addition p.i. up to which the compound still prevents virus yield (HIV-1 wt): ≤ 4 h |
| dextran sulphate [reference compound] |  |  |  |  |  |  |  |  |  |  |  |  |  |  |  |  |  |  |  |  | Prevention of syncytia formation [10]: 98% |
